# Experimental data reported in publication PMC9006954, “Computer-Based Immunoinformatic Analysis to Predict Candidate T-Cell Epitopes for SARS-CoV-2 Vaccine Design” (Frontiers in Immunology, 2022).
# Where no end group is shown, it is not given here.
# Target: T1, HLA-A*11:01 protein (Homo sapiens, UniProt P04439, A114D/D185E/E176A/F33Y/L180Q/S129P/T187R)
# T1 construct: biotin (biotinylated)
# Assay: Bio-Layer Interferometry (BLI) affinity test, Octet R8
# Details: Octet R8, SSA sensors, peptides 100-3.125 µM in PBST (PBS+0.02%Tween20+1% DMSO), balance, binding, dissociation 60 s each
Sequence,Kd [µM],KD,KD (listed as 13[…]21)
KCYGLSPTK,23,,
FSTFKCYGL,5.95,,
SQCVNFTTR,,Non-binding,not detected
GLSPTKLNDL,319,,
